Where “and” joins values, the source holds several entries; their conditions need not be identical. Equal entries are not always repeated. Inconclusive results and toxic doses are left out. How the source made its calls: active means survival T/C of 150% or more; inactive means T/C below 125% in these data.
Test system: CD2F1 mice, L1210 leukemia ip, survival T/C
Test: NCI In Vivo Anticancer Drug Screen. Data for tumor model L1210 Leukemia (intraperitoneal) in CD2F1 (CDF1) mice
Conditions: higher = longer survival
Method in brief: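 Activity against a transplanted murine tumor was judged by comparing the compound group with a vehicle group. The outcome in the treated animals was divided by that in the controls.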

[1] = endpoint: mean survival time, dose: 50.0 mg/kg/injection, schedule: Q01DX009 (ip), vehicle: saline
[2] = endpoint: mean survival time, dose: 100.0 mg/kg/injection, schedule: Q01DX009 (ip), vehicle: saline
[3] = endpoint: mean survival time, dose: 100.0 mg/kg/injection, schedule: Q04DX003 (ip), vehicle: saline with Tween-80
[4] = endpoint: mean survival time, dose: 100.0 mg/kg/injection, schedule: Q01DX009 (ip), vehicle: saline with Tween-80
[5] = endpoint: mean survival time, dose: 200.0 mg/kg/injection, schedule: Q01DX009 (ip), vehicle: saline with Tween-80
[6] = endpoint: mean survival time, dose: 200.0 mg/kg/injection, schedule: Q04DX003 (ip), vehicle: saline with Tween-80
[7] = endpoint: mean survival time, dose: 400.0 mg/kg/injection, schedule: Q01DX009 (ip), vehicle: saline with Tween-80
[8] = endpoint: mean survival time, dose: 400.0 mg/kg/injection, schedule: Q04DX003 (ip), vehicle: saline with Tween-80
[9] = endpoint: mean survival time, dose: 100.0 mg/kg/injection, schedule: Q01DX001 (ip), vehicle: saline with Tween-80
[10] = endpoint: mean survival time, dose: 200.0 mg/kg/injection, schedule: Q01DX001 (ip), vehicle: saline with Tween-80
[11] = endpoint: mean survival time, dose: 100.0 mg/kg/injection, schedule: Q04DX003 (ip), vehicle: saline
[12] = endpoint: mean survival time, dose: 200.0 mg/kg/injection, schedule: Q01DX009 (ip), vehicle: saline
[13] = endpoint: mean survival time, dose: 400.0 mg/kg/injection, schedule: Q01DX009 (ip), vehicle: saline
[14] = endpoint: mean survival time, dose: 400.0 mg/kg/injection, schedule: Q01DX001 (ip), vehicle: saline with Tween-80

Measured: T/C

Oc1ccccc1Cn1ccnc1
inactive: endpoint: mean survival time, dose: 25.0 mg/kg/injection, schedule: Q01DX009 (ip), vehicle: saline 104 % of control | [1] 98 % of control | [2] 98 % of control and 103 % of control

Cc1cc2[nH]cnc2cc1Cl
inactive: [1] 98 % of control | [2] 106 % of control

CCN(CC)CCNc1cc(C)nc(/N=C(\N)Nc2ccc(Br)c(C(F)(F)F)c2)n1
inactive: [3] 98 % of control

O=C(CNC(=O)Nc1cccc([N+](=O)[O-])c1)NNC(=O)Nc1ccc(Cl)c([N+](=O)[O-])c1
inactive: [4] 91 % of control | [5] 87 % of control

COC1=N/C=C/C=C\C/C=C/C1
inactive: endpoint: median survival time, dose: 50.0 mg/kg/injection, schedule: Q04DX002 (ip), vehicle: saline with Tween-80 111 % of control | endpoint: median survival time, dose: 100.0 mg/kg/injection, schedule: Q04DX002 (ip), vehicle: saline with Tween-80 88 % of control | endpoint: median survival time, dose: 200.0 mg/kg/injection, schedule: Q04DX002 (ip), vehicle: saline with Tween-80 100 % of control | endpoint: median survival time, dose: 400.0 mg/kg/injection, schedule: Q04DX002 (ip), vehicle: saline with Tween-80 88 % of control

CCCCCCCCCCCCCCCCCCn1cnc2c(Cl)ncnc21
inactive: endpoint: mean survival time, dose: 12.5 mg/kg/injection, schedule: Q01DX005 (ip), vehicle: other 87 % of control | endpoint: mean survival time, dose: 25.0 mg/kg/injection, schedule: Q01DX005 (ip), vehicle: other 91 % of control | endpoint: mean survival time, dose: 50.0 mg/kg/injection, schedule: Q01DX005 (ip), vehicle: other 92 % of control | endpoint: mean survival time, dose: 200.0 mg/kg/injection, schedule: Q01DX005 (ip), vehicle: other 86 % of control

O=C(O)CN(CC(=O)O)C1CCCCC1N(CC(=O)O)CC(=O)O.[Cl][Pd][Cl] (stereo not drawn)
inactive: endpoint: median survival time, dose: 10.0 mg/kg/injection, schedule: Q04DX003 (ip), vehicle: saline 103 % of control | endpoint: median survival time, dose: 20.0 mg/kg/injection, schedule: Q04DX003 (ip), vehicle: saline 100 % of control | endpoint: median survival time, dose: 40.0 mg/kg/injection, schedule: Q04DX003 (ip), vehicle: saline 103 % of control | endpoint: median survival time, dose: 80.0 mg/kg/injection, schedule: Q04DX003 (ip), vehicle: saline 103 % of control and 106 % of control | endpoint: median survival time, dose: 160.0 mg/kg/injection, schedule: Q04DX003 (ip), vehicle: saline 98 % of control

Cc1cn(C2CC(O)C(COC(c3ccccc3)(c3ccccc3)c3ccc(OCC(=O)O)cc3)O2)c(=O)[nH]c1=O (stereo not drawn)
inactive: endpoint: mean survival time, dose: 12.5 mg/kg/injection, schedule: Q01DX005 (ip), vehicle: distilled water + Tween-80 100 % of control | endpoint: mean survival time, dose: 25.0 mg/kg/injection, schedule: Q01DX005 (ip), vehicle: distilled water + Tween-80 97 % of control | endpoint: mean survival time, dose: 50.0 mg/kg/injection, schedule: Q01DX005 (ip), vehicle: distilled water + Tween-80 96 % of control | endpoint: mean survival time, dose: 100.0 mg/kg/injection, schedule: Q01DX005 (ip), vehicle: distilled water + Tween-80 102 % of control | endpoint: mean survival time, dose: 200.0 mg/kg/injection, schedule: Q01DX005 (ip), vehicle: distilled water + Tween-80 94 % of control

COc1cccc2c1C(=O)c1c(O)c3c(c(O)c1C2=O)C[C@@](O)(C(=O)CO)C[C@@H]3OC1CC(NC=O)C(O)C(C)O1 (stereo partly drawn)
inactive: endpoint: mean survival time, dose: 6.25 mg/kg/injection, schedule: Q04DX003 (ip), vehicle: water 93 % of control | endpoint: mean survival time, dose: 12.5 mg/kg/injection, schedule: Q04DX003 (ip), vehicle: water 93 % of control | endpoint: mean survival time, dose: 25.0 mg/kg/injection, schedule: Q04DX003 (ip), vehicle: water 102 % of control | endpoint: mean survival time, dose: 50.0 mg/kg/injection, schedule: Q04DX003 (ip), vehicle: water 112 % of control | endpoint: mean survival time, dose: 100.0 mg/kg/injection, schedule: Q04DX003 (ip), vehicle: water 114 % of control

O=c1cc(-c2ccccc2)nc(N[N+](=O)[O-])[nH]1
inactive: [3] 100 % of control | [6] 94 % of control

COC(=O)N/N=C\c1ccc(O)c(OC)c1
inactive: [4] 104 % of control | [5] 104 % of control | [7] 97 % of control

Cc1ccc([N+](=O)[O-])cc1C#N
inactive: [3] 105 % of control | [6] 105 % of control | [8] 113 % of control

Cc1cccc(NC2=NCCO2)c1
inactive: [9] 104 % of control | [10] 103 % of control

c1ccc2c(c1)ccc1c3ccccc3[nH]c21
inactive: endpoint: mean survival time, dose: 100.0 mg/kg/injection, schedule: Q01DX009 (ip), vehicle: other 94 % of control | endpoint: mean survival time, dose: 200.0 mg/kg/injection, schedule: Q01DX009 (ip), vehicle: other 97 % of control | endpoint: mean survival time, dose: 400.0 mg/kg/injection, schedule: Q01DX009 (ip), vehicle: other 96 % of control

CCc1ccc(O)cc1O
inactive: endpoint: mean survival time, dose: 25.0 mg/kg/injection, schedule: Q04DX003 (ip), vehicle: saline 97 % of control | endpoint: mean survival time, dose: 50.0 mg/kg/injection, schedule: Q04DX003 (ip), vehicle: saline 102 % of control | [11] 94 % of control and 96 % of control

COc1cccc(N2CCN(CC(O)COc3ccc(N)cc3)CC2)c1 (stereo not drawn)
inactive: endpoint: mean survival time, dose: 6.25 mg/kg/injection, schedule: Q04DX002 (ip), vehicle: other 98 % of control | endpoint: mean survival time, dose: 12.5 mg/kg/injection, schedule: Q04DX002 (ip), vehicle: other 95 % of control | endpoint: mean survival time, dose: 25.0 mg/kg/injection, schedule: Q04DX002 (ip), vehicle: other 107 % of control

COc1ccc(C(=O)NC[n+]2ccccc2)cc1
inactive: [11] 109 % of control

C(#Cc1ccccc1)c1ccccc1.Cc1ccc([PH+](c2ccccc2)c2ccccc2)cc1.Cc1ccc([PH+](c2ccccc2)c2ccccc2)cc1.[Pt]
inactive: endpoint: median survival time, dose: 3.13 mg/kg/injection, schedule: Q04DX003 (ip), vehicle: distilled water + Tween-80 100 % of control | endpoint: median survival time, dose: 6.25 mg/kg/injection, schedule: Q04DX003 (ip), vehicle: distilled water + Tween-80 101 % of control | endpoint: median survival time, dose: 12.5 mg/kg/injection, schedule: Q04DX003 (ip), vehicle: distilled water + Tween-80 105 % of control | endpoint: median survival time, dose: 25.0 mg/kg/injection, schedule: Q04DX003 (ip), vehicle: distilled water + Tween-80 89 % of control | endpoint: median survival time, dose: 50.0 mg/kg/injection, schedule: Q04DX003 (ip), vehicle: distilled water + Tween-80 90 % of control | endpoint: median survival time, dose: 100.0 mg/kg/injection, schedule: Q04DX003 (ip), vehicle: distilled water + Tween-80 94 % of control

N#CC(=C1CCCCC1)c1ccccc1
inactive: endpoint: mean survival time, dose: 75.0 mg/kg/injection, schedule: Q01DX001 (ip), vehicle: saline 98 % of control | endpoint: mean survival time, dose: 150.0 mg/kg/injection, schedule: Q01DX001 (ip), vehicle: saline 104 % of control | endpoint: mean survival time, dose: 300.0 mg/kg/injection, schedule: Q01DX001 (ip), vehicle: saline 96 % of control

CCNC(=S)NNc1ccccc1
inactive: endpoint: mean survival time, dose: 50.0 mg/kg/injection, schedule: Q01DX009 (ip), vehicle: saline with Tween-80 103 % of control | [4] 100 % of control | [5] 88 % of control

Cc1cn(C2CC(O)C(COC(N)=O)O2)c(=O)[nH]c1=O (stereo not drawn)
inactive: endpoint: mean survival time, dose: 100.0 mg/kg/injection, schedule: Q01DX001 (ip), vehicle: Klucel (hydroxypropylcellulose) (HPC) 116 % of control | endpoint: mean survival time, dose: 200.0 mg/kg/injection, schedule: Q01DX001 (ip), vehicle: Klucel (hydroxypropylcellulose) (HPC) 92 % of control | endpoint: mean survival time, dose: 400.0 mg/kg/injection, schedule: Q01DX001 (ip), vehicle: Klucel (hydroxypropylcellulose) (HPC) 104 % of control

c1ccc2c(c1)Sc1cnccc1N2CC1CO1 (stereo not drawn)
inactive: [2] 102 % of control | [12] 102 % of control | [13] 104 % of control

N#Cc1cn(C2OC(CO)C(O)C2O)c2[nH]cnc(=S)c12 (stereo not drawn)
inactive: endpoint: mean survival time, dose: 100.0 mg/kg/injection, schedule: Q01DX001 (ip), vehicle: saline 103 % of control | endpoint: mean survival time, dose: 200.0 mg/kg/injection, schedule: Q01DX001 (ip), vehicle: saline 108 % of control | endpoint: mean survival time, dose: 400.0 mg/kg/injection, schedule: Q01DX001 (ip), vehicle: saline 109 % of control

CC1(C)COC(c2ccccc2)OC1
inactive: [9] 95 % of control | [10] 103 % of control | [14] 101 % of control

CC(CO)(CO)[N+](=O)[O-]
inactive: [2] 98 % of control | [12] 102 % of control | [13] 104 % of control

Nc1nc(=O)n(CCCOc2ccc(Cl)cc2)cc1-c1ccccc1
inactive: [9] 98 % of control | [10] 101 % of control | [14] 88 % of control

Nc1ccccc1SSc1ccccc1N
inactive: [3] 98 % of control | [6] 90 % of control

FC(F)(F)c1cccc(NC2=NCCO2)c1
inactive: [9] 92 % of control | [10] 93 % of control | [14] 91 % of control

Cc1cc(C(=O)c2ccccn2)c2cc(Cl)cc(Cl)c2n1
inactive: [4] 93 % of control | [3] 88 % of control | [5] 91 % of control | [6] 94 % of control | [7] 87 % of control | [8] 94 % of control

c1ccc(Nc2ccccc2)cc1 (tested in a mixture with another compound)
inactive: endpoint: mean survival time, dose: 100.0 mg/kg/injection, schedule: Q04DX002 (ip), vehicle: saline 95 % of control
